Laboratory results taken from patent publication US4010184A, “Thienodiazepines” (Yoshitomi Pharmaceutical Industries, Ltd., priority 1973, dated 1977).

Columns and labels:
[1] = system: mice (tail electrical stimulation, absence of squeak); test: Analgesic Activity (Electrical Stimulation Method); type: in vivo, mouse; details: male mice, intraperitoneal, tail stimulated 5 s, 25 volts, 40 msec., 1 cps, determined graphically; for ED50: Mus musculus, ip
Description: 1. Analgesic Activity (Electrical Stimulation Method)
The test was performed essentially in accordance with the methods described in "Journal of the Pharmaceutical Society of Japan," vol 73, p. 212 ff. (1953) and "Folia Pharmacologica Japonica," vol. 65, p. 378 ff. (1969).
Test compound was administered intraperitoneally to groups consisting 10 male mice. The tail of the mouse was electrically stimulated for 5 seconds with interrupted direct current (25 volts, 40 msec., 1 cps.). When no squeak was observed during the electrical stimulation, analgesic effect was evaluated to be positive.
The ED50 (50% effective dose) was determined graphically.

[2] = system: mice (pentylenetetrazole lethality); test: Anticonvulsant Activity (pentylenetetrazole-induced death); type: in vivo, mouse; details: intraperitoneal; for Anticonvulsant Activity %-Inhibition: 15 min before pentylenetetrazole 150 mg/kg s.c., deaths within 3 hours, at dose equal to analgesic ED50: 40 (1, 2), 30 (3), 28 (4), 200 (5), 170 (6), 200 (7) mg/kg; for A/B (A: ED50 value for analgesic activity; B: ED50 value for anticonvulsant activity): ratio of ED50 values
Description: 2. Anticonvulsant Activity
Pentylenetetrazole (150 mg/kg) was administered subcutaneously to groups consisting 6 mice 15 minutes after the intraperitoneal administration of the test compound. The number of dead mice were counted within 3 hours after the administration of pentylenetetrazole. On one hand, the %-inhibition at the dose equal to the ED50 dose for analgesic activity was determined, and on the other, the ED50, the dose required to suppress the lethal rate to 50%, was determined graphically.

Compound: 5-(3,4-dichlorophenyl)-7-ethyl-1-dimethylcarbamoyl-2,3-dihydro-1H-thieno[2,3-e][1,4]diazepine hydrochloride [Example 6]
- Analgesic Activity ED50 [1]: 170 mg/kg

Compound: 5-o-chlorophenyl-7-ethyl-1-(4-methyl-1-piperazinylcarbonyl)-2,3-dihydro-1H-thieno[2,3-e][1,4]diazepine dihydrochloride 1/2 -hydrate [Example 4]
- Analgesic Activity ED50 [1]: 28 mg/kg

Compound: 5-o-chlorophenyl-7-ethyl-1-piperidinocarbonyl-2,3-dihydro-1H-thieno[2,3-e][1,4]diazepine hydrochloride [Example 3]
- Anticonvulsant Activity %-Inhibition [2]: 0%
- A/B (A: ED50 value for analgesic activity; B: ED50 value for anticonvulsant activity) [2]: < 0.4

Compound: 7-ethyl-1-dimethylcarbamoyl-5-phenyl-2,3-dihydro-1H-thieno[2,3-e][1,4]diazepine hydrochloric [Example 5]
- Analgesic Activity ED50 [1]: > 200 mg/kg

Compound: Cc1c(N(C)C)c(=O)n(-c2ccccc2)n1C [Aminopyrine, reference compound]
- ED50 [1]: 100 mg/kg

Compound: CCc1cc2c(s1)N(C(=O)N(C)C)CCN=C2c1ccccc1Cl.Cl [Test Compound 1, 5-o-chlorophenyl-7-ethyl-1-dimethylcarbamoyl-2,3-dihydro-1H-thieno[2,3-e][1,4]diazepine hydrochloride]
- ED50 [1]: 40 mg/kg
- Anticonvulsant Activity %-Inhibition [2]: 0%
- A/B (A: ED50 value for analgesic activity; B: ED50 value for anticonvulsant activity) [2]: < 0.4

Compound: CCc1cc2c(s1)N(C(=O)N(C)C)CCN=C2c1ccc(Cl)cc1.Cl [Test Compound 2, 5-p-chlorophenyl-7-ethyl-1-dimethylcarbamoyl-2,3-dihydro-1H-thieno[2,3-e][1,4]diazepine hydrochloride]
- ED50 [1]: 40 mg/kg
- Anticonvulsant Activity %-Inhibition [2]: 0%
- A/B (A: ED50 value for analgesic activity; B: ED50 value for anticonvulsant activity) [2]: < 0.4

Compound: CCc1cc2c(s1)N(C(=O)NC)CCN=C2c1ccccc1Cl [Test Compound 7, 5-o-chlorophenyl-7-ethyl-1-methylcarbamoyl-2,3-dihydro-1H-thieno[2,3-e][1,4]diazepine, reference compound]
- ED50 [1]: 200 mg/kg
- Anticonvulsant Activity %-Inhibition [2]: 100%
- A/B (A: ED50 value for analgesic activity; B: ED50 value for anticonvulsant activity) [2]: 2 - 4
